# From US20120220562A1, “Anti-Viral Compounds” (ABBOTT LABAORATORIES, priority 2011, published 2012)
# Test system: HCV 1b-Con1 replicon
# Assay: HCV 1b-Con1 replicon assay in the presence of 5% FBS
# Format: cell-based
# Conditions: Hepatitis C virus
row,SMILES,EC50
1,"COC(=O)N[C@H](C(=O)N1CCC[C@H]1c1nc2ccc([C@H]3CC[C@H](c4ccc5nc([C@@H]6CCCN6C(=O)[C@@H](NC(=O)OC)C(C)C)[nH]c5c4)N3c3cc(F)c(N4CCC(F)(c5ccccc5)CC4)c(F)c3)cc2[nH]1)C(C)C [Example 4.35, methyl {(2S)-1-[(2S)-2-{6-[(2R,5R)-1-[3,5-difluoro-4-(4-fluoro-4-phenylpiperidin-1-yl)phenyl]-5-{2-[(2S)-1-{(2S)-2-[(methoxycarbonyl)amino]-3-methylbutanoyl}pyrrolidin-2-yl]-1H-benzimidazol-6-yl}pyrrolidin-2-yl]-1H-benzimidazol-2-yl}pyrrolidin-1-yl]-3-methyl-1-oxobutan-2-yl}carbamate]",< 0.1 nM
2,"COC(=O)N[C@H](C(=O)N1CCC[C@H]1c1nc2cc([C@H]3CC[C@H](c4cc5nc([C@@H]6CCCN6C(=O)[C@@H](NC(=O)OC)[C@@H](C)OC(C)(C)C)[nH]c5cc4F)N3c3cc(F)c(N4CCC(C(C)(C)C)CC4)c(F)c3)c(F)cc2[nH]1)[C@@H](C)OC(C)(C)C [Example 4.29, methyl {(2S,3R)-3-tert-butoxy-1-[(2S)-2-(5-{(2R,5R)-5-{2-[(2S)-1-{(2S,3R)-3-tert-butoxy-2-[(methoxycarbonyl)amino]butanoyl}pyrrolidin-2-yl]-6-fluoro-1H-benzimidazol-5-yl}-1-[4-(4-tert-butylpiperidin-1-yl)-3,5-difluorophenyl]pyrrolidin-2-yl}-6-fluoro-1H-benzimidazol-2-yl)pyrrolidin-1-yl]-1-oxobutan-2-yl}carbamate]",< 0.1 nM
3,"COC(=O)N[C@H](C(=O)N1CCC[C@H]1c1nc2cc([C@@H]3CC[C@@H](c4cc5nc([C@@H]6CCCN6C(=O)[C@@H](NC(=O)OC)[C@@H](C)OC)[nH]c5cc4F)N3c3cc(F)c(N4CCN(c5c(F)cccc5F)CC4)c(F)c3)c(F)cc2[nH]1)[C@@H](C)OC [Example 3.49, methyl {(2S,3R)-1-[(2S)-2-{5-[(2S,5S)-1-{4-[4-(2,6-difluorophenyl)piperazin-1-yl]-3,5-difluorophenyl}-5-(6-fluoro-2-{(2S)-1-[N-(methoxycarbonyl)-O-methyl-L-threonyl]pyrrolidin-2-yl}-1H-benzimidazol-5-yl)pyrrolidin-2-yl]-6-fluoro-1H-benzimidazol-2-yl}pyrrolidin-1-yl]-3-methoxy-1-oxobutan-2-yl}carbamate]",< 0.1 nM
4,"COC(=O)N[C@H](C(=O)N1CCC[C@H]1c1nc2cc([C@H]3CC[C@H](c4ccc5[nH]c([C@@H]6CCCN6C(=O)[C@@H](NC(=O)OC)C(C)C)nc5c4)N3c3cc(F)c(N4Cc5ccccc5C4)c(F)c3)ccc2[nH]1)C(C)C [Example 5.13, methyl {(2S)-1-[(2S)-2-{5-[(2R,5R)-1-[4-(1,3-dihydro-2H-isoindol-2-yl)-3,5-difluorophenyl]-5-{2-[(2S)-1-{(2S)-2-[(methoxycarbonyl)amino]-3-methylbutanoyl}pyrrolidin-2-yl]-1H-benzimidazol-5-yl}pyrrolidin-2-yl]-1H-benzimidazol-2-yl}pyrrolidin-1-yl]-3-methyl-1-oxobutan-2-yl}carbamate]",< 0.1 nM
5,"COC(=O)N[C@H](C(=O)N1CCC[C@H]1c1nc2cc([C@H]3CC[C@H](c4ccc5[nH]c([C@@H]6CCCN6C(=O)[C@@H](NC(=O)OC)C(C)C)nc5c4)N3c3ccc(OC(F)(F)F)c(Cl)c3)ccc2[nH]1)C(C)C [Example 3.2, methyl {(2S)-1-[(2S)-2-{5-[(2R,5R)-1-[3-chloro-4-(trifluoromethoxy)phenyl]-5-{2-[(2S)-1-{(2S)-2-[(methoxycarbonyl)amino]-3-methylbutanoyl}pyrrolidin-2-yl]-1H-benzimidazol-5-yl}pyrrolidin-2-yl]-1H-benzimidazol-2-yl}pyrrolidin-1-yl]-3-methyl-1-oxobutan-2-yl}carbamate]",< 0.1 nM
6,"COC(=O)N[C@H](C(=O)N1[C@H](c2nc3cc([C@H]4CC[C@H](c5cc6nc([C@@H]7C[C@@H]8CCC[C@@H]8N7C(=O)[C@@H](NC(=O)OC)C7CCOCC7)[nH]c6cc5F)N4c4cc(F)c(N5CCCCC5)c(F)c4)c(F)cc3[nH]2)C[C@@H]2CCC[C@@H]21)C1CCOCC1 [Example 3.41, dimethyl ({(2R,5R)-1-[3,5-difluoro-4-(piperidin-1-yl)phenyl]pyrrolidine-2,5-diyl}bis{(6-fluoro-1H-benzimidazole-5,2-diyl)(2S,3aS,6aS)hexahydrocyclopenta[b]pyrrole-2,1(2H)-diyl[(1S)-2-oxo-1-(tetrahydro-2H-pyran-4-yl)ethane-2,1-diyl]})biscarbamate]",< 0.1 nM
7,"COC(=O)N[C@H](C(=O)N1CCC[C@H]1c1nc2cc([C@H]3CC[C@H](c4ccc5[nH]c([C@@H]6CCCN6C(=O)[C@@H](NC(=O)OC)C(C)C)nc5c4)N3c3cc(F)c(N4CCC(c5cccc([Si](C)(C)C)c5)CC4)c(F)c3)ccc2[nH]1)C(C)C [Example 3.43, methyl {(2S)-1-[(2S)-2-{5-[(2R,5R)-1-(3,5-difluoro-4-{4-[3-(trimethylsilyl)phenyl]piperidin-1-yl}phenyl)-5-{2-[(2S)-1-{(2S)-2-[(methoxycarbonyl)amino]-3-methylbutanoyl}pyrrolidin-2-yl]-1H-benzimidazol-5-yl}pyrrolidin-2-yl]-1H-benzimidazol-2-yl}pyrrolidin-1-yl]-3-methyl-1-oxobutan-2-yl}carbamate]",< 0.1 nM
8,"COC(=O)N[C@H](C(=O)N1CCC[C@H]1c1nc2cc([C@H]3CC[C@H](c4ccc5[nH]c([C@@H]6CCCN6C(=O)[C@@H](NC(=O)OC)C(C)C)nc5c4)N3c3ccc(N4CCCCC4=O)cc3)ccc2[nH]1)C(C)C [Example 1.2, methyl {(2S)-1-[(2S)-2-(5-{(2R,5R)-5-{2-[(2S)-1-{(2S)-2-[(methoxycarbonyl)amino]-3-methylbutanoyl}pyrrolidin-2-yl]-1H-benzimidazol-5-yl}-1-[4-(2-oxopiperidin-1-yl)phenyl]pyrrolidin-2-yl}-1H-benzimidazol-2-yl)pyrrolidin-1-yl]-3-methyl-1-oxobutan-2-yl}carbamate]",> 10 nM
9,"COC(=O)N[C@@H](C(=O)N1c2ccccc2C[C@H]1c1nc2cc([C@H]3CC[C@H](c4ccc5[nH]c([C@@H]6Cc7ccccc7N6C(=O)[C@H](NC(=O)OC)C(C)C)nc5c4)N3c3cc(F)c(N4CCCCC4)c(F)c3)ccc2[nH]1)C(C)C [Example 3.25, methyl {(2R)-1-[(2S)-2-{5-[(2R,5R)-1-[3,5-difluoro-4-(piperidin-1-yl)phenyl]-5-{2-[(2S)-1-{(2R)-2-[(methoxycarbonyl)amino]-3-methylbutanoyl}-2,3-dihydro-1H-indol-2-yl]-1H-benzimidazol-5-yl}pyrrolidin-2-yl]-1H-benzimidazol-2-yl}-2,3-dihydro-1H-indol-1-yl]-3-methyl-1-oxobutan-2-yl}carbamate]",< 0.1 nM
10,"COC(=O)N[C@H](C(=O)N1[C@H](c2nc3cc([C@H]4CC[C@H](c5ccc6[nH]c([C@@H]7C[C@@H]8CCC[C@@H]8N7C(=O)[C@@H](NC(=O)OC)C7CCCC7)nc6c5)N4c4cc(F)c(N5CCCCC5)c(F)c4)ccc3[nH]2)C[C@@H]2CCC[C@@H]21)C1CCCC1 [Example 3.30, dimethyl ({(2R,5R)-1-[3,5-difluoro-4-(piperidin-1-yl)phenyl]pyrrolidine-2,5-diyl}bis{1H-benzimidazole-5,2-diyl(2S,3aS,6aS)hexahydrocyclopenta[b]pyrrole-2,1(2H)-diyl[(1S)-1-cyclopentyl-2-oxoethane-2,1-diyl]})biscarbamate]",< 0.1 nM
